This passage reports IC50 results from patent US20250320228A1, “PYRIDO[3,2-D]PYRIMIDINES AS HPK1 INHIBITORS” (Merck Patent GmbH, priority 2022, published 2025).

Test [1] concerns HPK1 pSLP76 (Ser376). The test can be described thus: Cellular assay phospho-SLP-76 (Ser376). It is filed as cell-based, human. The following applies: read-out: HPK1 pSLP76 IC50. In outline:
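Jurkat (human) and EL-4 (mouse) cells preincubated 60 min with compound, then stimulated with αCD3/αCD28 Dynabeads at 37 °C (Jurkat 15 min; EL-4 30 min). SLP76 Ser376 phosphorylation in lysate read by AlphaLISA SureFire (Jurkat) or HTRF (EL-4, 19 h); IC50 from 10-point dilutions.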

In test [2] the target is full-length human HPK1 (MAP4K1) (Homo sapiens (Human), UniProt Q92918). In words: HPK1 kinase assay (biochemical, ADP-Glo). The following applies: read-out: HPK1 enzymatic IC50. In outline:
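GST-tagged full-length human HPK1 from Sf21 baculovirus cells (3.2 nM in enzyme mix; 50 mM HEPES pH 7.5, 10 mM MgCl2) was preincubated 15 min at RT with compound. Reaction was started with Start-Mix (10 μM ATP, 3.235 μM MBP) and run 120 min. ADP was read by ADP-Glo luminescence; IC50 came from 10-point % inhibition.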

Where [3] appears, read: SLP76 Ser376 phosphorylation after αCD3/αCD28 stimulation, Jurkat (human) or EL-4 (mouse) cells, table does not say which.
Where [4] appears, read: GST-HPK1 3.2 nM, 10 μM ATP, MBP substrate, ADP-Glo.

Each structure is given as a SMILES string. Structures can show the parent of a compound that is named as a salt. Where two headings read alike, the source gives them in different places.

Sequence of full-length human HPK1 (MAP4K1) (Q92918 whole entry): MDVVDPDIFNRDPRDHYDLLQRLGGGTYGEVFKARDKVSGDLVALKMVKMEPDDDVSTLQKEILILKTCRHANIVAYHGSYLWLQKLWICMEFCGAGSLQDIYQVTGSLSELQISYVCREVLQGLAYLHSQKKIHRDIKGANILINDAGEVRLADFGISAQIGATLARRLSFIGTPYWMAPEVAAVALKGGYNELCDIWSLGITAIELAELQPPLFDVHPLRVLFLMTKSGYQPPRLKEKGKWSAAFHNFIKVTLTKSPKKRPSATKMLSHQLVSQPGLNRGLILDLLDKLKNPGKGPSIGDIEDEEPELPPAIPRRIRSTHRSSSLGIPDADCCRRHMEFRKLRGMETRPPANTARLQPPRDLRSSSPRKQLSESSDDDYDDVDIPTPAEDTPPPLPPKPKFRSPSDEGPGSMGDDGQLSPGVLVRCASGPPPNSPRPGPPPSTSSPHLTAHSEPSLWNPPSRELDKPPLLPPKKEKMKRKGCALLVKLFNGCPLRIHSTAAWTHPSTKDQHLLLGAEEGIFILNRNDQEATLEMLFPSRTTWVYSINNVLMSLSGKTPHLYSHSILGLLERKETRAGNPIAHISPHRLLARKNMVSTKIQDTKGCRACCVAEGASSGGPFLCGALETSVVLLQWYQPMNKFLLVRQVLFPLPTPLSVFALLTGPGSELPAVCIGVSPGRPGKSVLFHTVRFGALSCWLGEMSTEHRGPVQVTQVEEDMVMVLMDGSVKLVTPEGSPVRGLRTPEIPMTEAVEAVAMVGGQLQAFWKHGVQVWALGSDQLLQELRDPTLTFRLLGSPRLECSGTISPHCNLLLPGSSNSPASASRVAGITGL

As to `CN1CCN(c2ccc(-c3cc(C(N)=O)c4ncnc(N[C@H]5CCCNC5)c4n3)cn2)CC1` [Example 59, 6-[6-(4-methylpiperazin-1-yl)pyridin-3-yl]-4-[(3S)-piperidin-3-ylamino]pyrido[3,2-d]pyrimidine-8-carboxamide], the values for the IC50 in test [1] (setting [3]) and in test [2] (setting [4]) were below 500 nM and below 100 nM, respectively.

Take `Cc1nn(C)cc1-c1cc(C(N)=O)c2ncnc(N[C@@H]3CNC[C@@H](F)C3)c2n1` [Example 3, 6-(1,3-dimethyl-1H-pyrazol-4-yl)-4-(((3S,5S)-5-fluoropiperidin-3-yl)amino)pyrido[3,2-d]pyrimidine-8-carboxamide]: the results for the IC50 in test [1] (setting [3]) and in test [2] (setting [4]) were below 500 nM and below 100 nM, respectively.

In the case of `C[C@@H]1COC[C@H](C)N1Cc1ccc(-c2cc(C(N)=O)c3ncnc(N[C@@H]4CNCCC4(F)F)c3n2)cc1` [Example 29, 4-[[(3R)-4,4-difluoropiperidin-3-yl]amino]-6-(4-[[(3R,5S)-3,5-dimethylmorpholin-4-yl]methyl]phenyl)pyrido[3,2-d]pyrimidine-8-carboxamide], the IC50 is above 1000 nM in test [1] (setting [3]) and below 100 nM in test [2] (setting [4]).

As for `C[C@H]1CN(Cc2ccc(-c3cc(C(N)=O)c4ncnc(N[C@H]5CCCNC5)c4n3)cc2)CCO1` [Example 27, 6-(4-[[(2S)-2-methylmorpholin-4-yl]methyl]phenyl)-4-[(3S)-piperidin-3-ylamino]pyrido [3,2-d]pyrimidine-8 carboxamide dihydrochloride], the IC50 is below 500 nM in test [1] (setting [3]) and below 100 nM in test [2] (setting [4]).

With `Cn1cc(-c2cc(C(N)=O)c3ncnc(N[C@@H]4CNC[C@@H](F)C4)c3n2)cc1C#N` [Example 7, 6-(5-cyano-1-methyl-1H-pyrrol-3-yl)-4-{[(3S,5S)-5-fluoropiperidin-3-yl]amino}pyrido[3,2-d]pyrimidine-8-carboxamide], the IC50 was below 500 nM in test [1] (setting [3]) and below 100 nM in test [2] (setting [4]).

With `NC(=O)c1cc(-c2ccc(N3CCC(O)C3)nc2)nc2c(N[C@@H]3CNC[C@@H](F)C3)ncnc12` (stereo partly drawn) [Example 32, 4-(((3S,5S)-5-fluoropiperidin-3-yl)amino)-6-(6-(3-hydroxypyrrolidin-1-yl)pyridin-3-yl)pyrido[3,2-d]pyrimidine-8-carboxamide], the IC50 in test [1] (setting [3]) is above 1000 nM; in test [2] (setting [4]), below 100 nM.

In the case of `COCCOc1ccc(-c2cc(C(N)=O)c3ncnc(N[C@H]4CCCNC4)c3n2)cc1` [Example 24, (S)-6-(4-(2-methoxyethoxy)phenyl)-4-(piperidin-3-ylamino) pyrido[3,2-d]pyrimidine-8-carboxamide], the results for the IC50 in test [1] (setting [3]) and in test [2] (setting [4]) were below 500 nM and below 100 nM, respectively.

For `NC(=O)c1cc(-c2ccc(C3(O)COC3)cc2)nc2c(N[C@H]3CCCNC3)ncnc12` [Example 82, 6-[4-(3-hydroxyoxetan-3-yl)phenyl]-4-{[(3S)-piperidin-3-yl]amino}pyrido[3,2-d]pyrimidine-8-carboxamide], the results for the IC50 in test [1] (setting [3]) and in test [2] (setting [4]) were 500 to 1000 nM and below 100 nM, respectively.

For the molecule `NC(=O)c1cc(-c2ccc(CN3CCOCC3)cc2)nc2c(N[C@H]3CCCNC3)ncnc12` [Example 30, 6-[4-(morpholin-4-ylmethyl)phenyl]-4-[(3S)-piperidin-3-ylamino]pyrido[3,2-d]pyrimidine-8-carboxamide], the IC50 in test [1] (setting [3]) is below 500 nM; in test [2] (setting [4]) it was below 100 nM.

Regarding `CC(C)(O)COc1ccc(-c2cc(C(N)=O)c3ncnc(N[C@@H]4CNC[C@@H](F)C4)c3n2)cc1` [Example 12, 4-(((3S,5S)-5-fluoropiperidin-3-yl)amino)-6-(4-(2-hydroxy-2-methylpropoxy)phenyl)pyrido[3,2-d]pyrimidine-8-carboxamide], the IC50 is below 500 nM in test [1] (setting [3]) and below 100 nM in test [2] (setting [4]).

In the case of `Cc1nn(C)cc1-c1cc(C(N)=O)c2ncnc(N[C@H]3CCCNC3)c2n1` [Example 79, 6-(1,3-dimethyl-1H-pyrazol-4-yl)-4-{[(3S)-piperidin-3-yl]amino}pyrido[3,2-d]pyrimidine-8-carboxamide], the IC50 in test [1] (setting [3]) is above 1000 nM; in test [2] (setting [4]), below 100 nM.

Consider `NC(=O)c1cc(-c2ccc(OCC3(O)CCCC3)cc2)nc2c(N[C@@H]3CNC[C@@H](F)C3)ncnc12` [Example 35, 4-(((3S,5S)-5-fluoropiperidin-3-yl)amino)-6-(4-((1-hydroxycyclopentyl)methoxy)phenyl)pyrido[3,2-d]pyrimidine-8-carboxamide], for which the IC50 in test [1] (setting [3]) is 500 to 1000 nM; in test [2] (setting [4]), below 100 nM.

As for `NC(=O)c1cc(-c2ccc(F)cc2)nc2c(N[C@H]3CCCNC3)ncnc12` [Example 76, 6-(4-fluorophenyl)-4-{[(3S)-piperidin-3-yl]amino}pyrido[3,2-d]pyrimidine-8-carboxamide], the IC50 in test [1] (setting [3]) is below 500 nM; in test [2] (setting [4]), below 100 nM.

`NC(=O)c1cc(-c2ccc(CN3CCO[C@H](C(F)(F)F)C3)cc2)nc2c(N[C@H]3CCCNC3)ncnc12` [Example 57, 4-[(3S)-piperidin-3-ylamino]-6-(4-[[(2S)-2(trifluoromethyl)morpholin-4-yl]methyl]phenyl) pyrido [3,2-d]pyrimidine-8-carboxamide]: the figures for the IC50 in test [1] (setting [3]) and in test [2] (setting [4]) were below 500 nM and below 100 nM, respectively.

Consider `N#Cc1ccccc1-c1cc(C(N)=O)c2ncnc(N[C@H]3CCCNC3)c2n1` [Example 86, 6-(2-cyanophenyl)-4-{[(3S)-piperidin-3-yl]amino}pyrido[3,2-d]pyrimidine-8-carboxamide], for which the IC50 in test [1] (setting [3]) is 500 to 1000 nM; in test [2] (setting [4]), below 100 nM.

With `NC(=O)c1cc(-c2cnn(CC(F)F)c2)nc2c(N[C@H]3CCCNC3)ncnc12` [Example 81, 6-[1-(2,2-difluoroethyl)-1H-pyrazol-4-yl]-4-{[(3S)-piperidin-3-yl]amino}pyrido[3,2-d]pyrimidine-8-carboxamide], the IC50 was above 1000 nM in test [1] (setting [3]) and below 100 nM in test [2] (setting [4]).

As for `CC(O)(C#N)COc1ccc(-c2cc(C(N)=O)c3ncnc(N[C@H]4CCCNC4)c3n2)cc1` (stereo partly drawn) [Example 40, 6-(4-(2-cyano-2-hydroxypropoxy)phenyl)-4-(((S)-piperidin-3-yl)amino)pyrido[3,2-d]pyrimidine-8-carboxamide], the IC50 in test [1] (setting [3]) is above 1000 nM; in test [2] (setting [4]), below 100 nM.

For `COC(C)(C)COc1ccc(-c2cc(C(N)=O)c3ncnc(N[C@H]4CCCNC4)c3n2)cc1` [Example 61, 6-[4-(2-methoxy-2-methylpropoxy)phenyl]-4-[(3S)-piperidin-3-ylamino]pyrido[3,2-d]pyrimidine-8-carboxamide], the IC50 is below 500 nM in test [1] (setting [3]) and below 100 nM in test [2] (setting [4]).

For `NC(=O)c1cc(-c2ccc(CC3(F)CCOCC3)cc2)nc2c(N[C@H]3CCCNC3)ncnc12` [Example 44, (S)-6-(4-((4-fluorotetrahydro-2H-pyran-4-yl)methyl)phenyl)-4-(piperidin-3-ylamino)pyrido[3,2-d]pyrimidine-8-carboxamide], the values for the IC50 in test [1] (setting [3]) and in test [2] (setting [4]) were below 500 nM and below 100 nM, respectively.

On to `COCCOc1ccc(-c2cc(C(N)=O)c3ncnc(N[C@@H]4CNCC[C@H]4F)c3n2)cc1` [Example 48, 4-(((3R,4R)-4-fluoropiperidin-3-yl)amino)-6-(4-(2-methoxyethoxy)phenyl)pyrido[3,2-d]pyrimidine-8-carboxamide], for which the IC50 in test [1] (setting [3]) was below 500 nM; in test [2] (setting [4]), below 100 nM.

Regarding `C[C@@H](O)COc1ccc(-c2cc(C(N)=O)c3ncnc(N[C@H]4CCCNC4)c3n2)cc1` [Example 51, 6-(4-((R)-2-hydroxypropoxy)phenyl)-4-(((S)-piperidin-3-yl)amino)pyrido[3,2-d]pyrimidine-8-carboxamide], the IC50 in test [1] (Homo sapiens, Jurkat) is below 500 nM; in test [2], below 100 nM.

Take `CCn1ncc(-c2cc(C(N)=O)c3ncnc(N[C@@H]4CNC[C@@H](F)C4)c3n2)c1C` [Example 8, 6-(1-ethyl-5-methyl-1H-pyrazol-4-yl)-4-(((3S,5S)-5-fluoropiperidin-3-yl)amino)pyrido[3,2-d]pyrimidine-8-carboxamide]: the results for the IC50 in test [1] (setting [3]) and in test [2] (setting [4]) were below 500 nM and below 100 nM, respectively.

Turning to `NC(=O)c1cc(-c2cc(F)c(OCC3(O)CCOCC3)c(F)c2)nc2c(N[C@@H]3CNC[C@@H](F)C3)ncnc12` [Example 37, 6-(3,5-difluoro-4-((4-hydroxytetrahydro-2H-pyran-4-yl)methoxy)phenyl)-4-(((3S,5S)-5-fluoropiperidin-3-yl)amino)pyrido[3,2-d]pyrimidine-8-carboxamide], the IC50 is below 500 nM in test [1] (setting [3]) and below 100 nM in test [2] (setting [4]).

For the molecule `Cn1cc(-c2cc(C(N)=O)c3ncnc(N[C@H]4CCCNC4)c3n2)cc1C#N` [Example 83, 6-(5-cyano-1-methyl-1H-pyrrol-3-yl)-4-{[(3S)-piperidin-3-yl]amino}pyrido[3,2-d]pyrimidine-8-carboxamide], the IC50 in test [1] (setting [3]) is below 500 nM; in test [2] (setting [4]), below 100 nM.

For `C[C@@H]1CN(Cc2ccc(-c3cc(C(N)=O)c4ncnc(N[C@H]5CCCNC5)c4n3)cc2)C[C@@H](C)O1` [Example 68, 6-(4-[[(2R,6R)-2,6-dimethylmorpholin-4-yl]methyl]phenyl)-4-[(3S)-piperidin-3-ylamino]pyrido[3,2-d]pyrimidine-8-carboxamide], the IC50 in test [1] (setting [3]) is 500 to 1000 nM; in test [2] (setting [4]) it was below 100 nM.
